From patent US7005539B2, “Ferulic acid dimers and their pharmaceutically acceptable salts, their preparation and use thereof for treating dementia” (Korea Institute of Science and Technology, priority 2001, dated 2006)

Key:
[1] = test system: Sprague-Dawley rats; assay: single-dose oral toxicity test in rats; format: in vivo, rat; conditions: for LD50: oral, one time, in corn oil, observed 7 days
Method: Twenty female and twenty male Sprague-Dawley rats aged 4 weeks were divided into four groups including 5 female and 5 male rats, after being raised in a vivarium of temperature 22±3° C., relative humidity 50±10%, illumination 150–300 Lux for 1 week.
The ferulic acid dimers prepared in Example 1 was dissolved in corn oil, and the rats of 4 groups were orally administered with the solutions at a dose of 300, 1,000, 3,000 and 10,000 mg/kg one time. For 7 days after administration, changes of general symptoms and occurrence of death were observed. In addition, the rats were killed on day 7 after administration, dissected, and internal organs were examined with unaided eye. From the extract administration day, daily weight changes were measured and thus the weight decrease of animals attributed to ferulic acid dimers was observed.

[2] = test system: mice administered with beta-amyloid; assay: passive avoidance test in mice given beta-amyloid into the cerebral ventricle; format: in vivo, mouse; conditions: group C (dimer and beta-amyloid) compared with group B (beta-amyloid (1–42) only); 24 h after training; maximum 300 seconds; FIG. 1
Method: Four groups of 10 mice aged 4–5 weeks, weighing 20–25 g, were administered with samples dissolved in 1% DMSO and 1% CMC using Sonde once per 1 day(samples: A-reverse phase betaamyloid, B-betaamyloid, C-ferulic acid dimer of example 1 and betaamyloid, D-ferulic acid and betaamyloid). After injection of […] sample to the celebral ventricle on each of 3 consecutive days, passive avoidance test on days 1 and 2, and Y-maze test on days 3 and 4 following the last injection were conducted. All data attained by the average mean of 10 mice each group.
Injection into the cerebral ventricle was performed according to the method described in Laursen & Belknap, J. Pharmacol. Methods. 1986, 16, 355. […]
In order to examine the learning and memory-retention ability of a mouse, a passive avoidance test was carried out in accordance with the method described in Song et al., J. Neurochem., 1998, 71, 875. […] Twenty-four hours after the training, the mouse was put in the light room again and the time it took to enter the dark room was measured as a passive avoidance time. The maximum restriction time was set at 300 seconds, i. e., in cases where the mouse took more than 300 seconds to enter the dark room, the passive avoidance time was determined to be 300 seconds.

[3] = test system: mouse; conditions: separated ferulic acid monomer administered to mouse; cited from earlier work
[4] = test system: plasophylin; assay: T7 phage display selection of human brain cDNA library proteins on immobilized ferulic acid (chemical genomics); format: binding; conditions: screening repeated 3–4 times; identified by sequencing and BLAST
Description: (§1) In order to study a functional mechanism of ferulic acid dimers, the present inventors conducted an experiment to screen from protein libraries proteins conjugatable with ferulic acid by use the method of chemical genomics. To this end, ferulic acid was immobilized onto a solid substrate and treated with T7 phages having proteins translated from a human brain and cDNA library on their surface to select the proteins bound to the immobilized ferulic acid. For selection of the proteins with the best affinity for ferulic acid, the screening procedure was repeated 3–4 times. Base sequencing of the cDNA selected allowed the amino acid sequences of the corresponding proteins to be inferred. […] Of the proteins thus identified, cynuclein and plasophylin attracted particular attention. These two proteins, known to be directly or indirectly associated with formation of intercelluar or intracelluar plaque, were therefore found to be inhibited from forming plaques by ferulic acid.

[5] = test system: cynuclein; assay: as above; format: binding; conditions: screening repeated 3–4 times; identified by sequencing and BLAST
Description: as §1

Structure (SMILES) | LD50 ([1]; females) | body weight ([1]; groups administered with 1,000 mg/kg or less) | LD50 ([1]; males) | pathological changes seen with naked eye on dissection ([1]; surviving animals, groups administered 1,000 mg/kg or less, day 7) | step-through latency [2] | memory-retention ability of mouse [3] | protein selected as bound to immobilized ferulic acid [4] | protein selected as bound to immobilized ferulic acid [5]
O=C(O)C=Cc1ccc(O)c(OCCOc2cc(C=CC(=O)O)ccc2O)c1 [Example 1, 1,2-[2-hydroxy-5-(2-carboxyvinyl)]phenoxyethane] | 2,804 mg/kg | not decreased | 3,722 mg/kg | No pathological changes | significantly higher |  |  | 
COc1cc(/C=C/C(=O)O)ccc1O [ferulic acid, 4-hydroxy-3-methoxy cinnamic acid] |  |  |  |  |  | considerably increased | specifically bound | specifically bound
